Experimental data: patent US10695352B2, “Combination therapy for treating malignancies” (Celgene Corporation, priority 2015, dated 2020)
Where two headings read alike, the source gives them in different places.

Legend:
[1] = system: TF1 IDH2/R140Q cells; settings: for hemoglobin production (coloration/hemoglobinization of cell pellets): day 14, COMPOUND 1 0.2 and 1 μM, azacitidine 0.1 and 0.3 μM; for hemoglobin production (red color of cell pellets): day 18, COMPOUND 1 0.2 μM and 1.0 μM
Source text: FIG. 1 in section A depicts COMPOUND 1 and azacitidine (AZA) combination schedule and dosing paradigms for sequential treatment of: 3 days (QDx3) of pre-treatment with azacitidine followed by treatment with the COMPOUND 1 for one week and erythropoietin (EPO)+COMPOUND 1 for another week. The cells were harvested on Day 18 and subjected to various endpoint assays for monitoring differentiation and death. FIG. 1, in section B depicts COMPOUND 1 and azacitidine combination schedule and dosing paradigms for concurrent treatment of: treatment for 7 days with the combination of azacitidine and COMPOUND 1 followed by 7 days of the treatment with azacitidine, COMPOUND 1 and EPO. The cells were harvested on Day 14 and subjected to various endpoint assays for monitoring differentiation and death.
(§1) Measures of cell differentiation, growth and death were evaluated in an engineered TF-1 erythroleukemia cells overexpressing the IDH2/R140Q allele or the empty vector control TF-1/pLVX (Wang et al., Science 340:622-626, 2013). The cells were grown in RPMI containing HEPES and L-glutamine (Lonza 12-115F), 10% FBS (HyClone SH30088.03), Pen/Strep (Life Technologies 15070-063), G418: final concentration 500 μg/ml (Life Technologies 10131-027); GM-CSF: final concentration 5 ng/ml (R&D 215-GM-050). Only newly grown cells were used. G418 and GM-CSF were added fresh to media each time cells were passaged. Media was changed every 2-3 days by pelleting cells and resuspending in fresh media or by adding 2 ml of cells to 10 ml of fresh media. When cells were treated with a compound, the media was changed by pelleting cells to ensure proper concentration of the compound.
F1/pLVX and TF1 IDH2/R140Q cells (100,000 cells/ml) were pretreated for 7 days with COMPOUND 1, azacitidine or combination thereof (medium was changed every 2 days) and washed with PBS to remove residual GM-CSF. Cells were induced to differentiate using EPO (2 unit/ml) in the presence or absence of COMPOUND 1. Induction continued for 7 days and the cell pellets were collected and imaged for hemoglobinization content (as a surrogate for differentiation into blood lineage).
(§2) Measures of cell differentiation, growth and death were evaluated in TF1-R140Q cells, using an in vitro EPO differentiation assay and dose-schedule paradigms represented in FIG. 1. Cells were treated with vehicle, azacitidine alone, COMPOUND 1 alone, or the combination of azacitidine and COMPOUND 1. In the sequential schedule, cells were pre-treated with azacitidine for three days before adding COMPOUND 1. In the concurrent schedule, cells were co-treated with azacitidine and COMPOUND 1 throughout the assay.

[2] = system: TF1 IDH2/R140Q cells; settings: for RNA expression of differentiation markers KLF1 and HBG: concurrent schedule; for increase in HBG gene expression: COMPOUND 1 0.2 μM, single agents or combination
Procedure: FIG. 2A depicts the effect of the combination of azacitidine and COMPOUND 1 used sequentially on differentiation markers. […] Treated cells were subjected to qRT-PCR (ii) and to HBG qRT-PCR (iii). FIG. 2B depicts the effect of the combination of azacitidine and COMPOUND 1 used concurrently on differentiation markers. […] Treated cells were subjected to qRT-PCR (ii) and to HBG qRT-PCR (iii).
as §1
The RNA was isolated from cells by RNA easy kit (obtained from Qiagen). 500 ng of RNA was used to make cDNA that was subjected to real-time qPCR to detect fetal hemoglobin (HBG) and KLF-1 gene expression. The RNA easy kit was obtained from Qiagen. cDNA was made from Superscript VILO kit (Life technologies). Taqman probes were obtained from Applied Biosciences.
as §2

[3] = system: TF1-R140Q cells; test: Hematopoietic stem cell and blast content determination (CD34, CD38, FACS); format: cell-based; settings: for CD34+/CD38+ and CD34+/CD38− cell populations: end of EPO-differentiation assay; for decrease of hematopoietic progenitor cells (CD34+/CD38+): sequential treatment, COMPOUND 1 0.2 μM, azacitidine 0.1 μM, single agents or combination
Procedure: Flow cytometry analysis was performed for sequential and concurrent schedules. Hematopoietic progenitor cells (CD34+/CD38+) (i) and stem cells (CD34+/CD38−) (ii) populations were normalized to DMSO+EPO and plotted. Values for population percentage decreases are shown, with those in red font depicting greater than additive effect with the combination as compared to AZA or COMPOUND 1 as single agents.
Cells were blocked in 10×BSA and diluted with MACS rinsing solution to 1× concentration for 15 min (staining buffer, BD Biosciences). Supernatant was removed by spinning. 10 μl of anti-CD34 FITC and anti-CD38 APC antibodies (each in staining buffer) were added. Mouse IgG2a FITC and IgG2a APC were used as isotype controls. Cells were stained for 10 min in dark, the solution was spinned to remove supernatant, the cells were resuspended in 300 μl of staining buffer and proceed to fluorescence-activated cell sorting (FACS).
The hematopoietic stem (CD34+/CD38−) and progenitor (CD34+/CD38+) cell populations were quantified at the end of the EPO-differentiation assay (FIGS. 3 and 8). As single agents, both azacitidine and COMPOUND 1 reduced CD34+/CD38+(FIG. 3i) and CD34+/CD38− (FIG. 3ii) cell populations. […] For example, COMPOUND 1 (0.2 μM) and azacitidine (0.1 μM) as single agents decreased hematopoietic progenitor cells (CD34+/CD38+) by 32% and 7%, respectively, with sequential treatment, while the combination of azacitidine (0.1 μM) and COMPOUND 1 (0.2 μM) decreased the hematopoietic progenitor cell population by 64% (FIG. 3i).

[4] = system: TF1-R140Q cells; test: Annexin V/7-AAD flow cytometry cell death analysis; format: cell-based; settings: concurrent dose-schedule regimen; average values across dose concentrations
Procedure: Annexin V and 7-AAD flow cytometry analysis was performed for sequential (day 18) and concurrent (day 14) dosing schedules. Populations were normalized to DMSO+EPO and fold change of percent Annexin V+ and/or 7-AAD+ was plotted.
Cell death was analyzed via Annexin V/7-AAD flow cytometry at the end of the EPO-differentiation assay (FIGS. 4 and 9). In the sequential dose-schedule regimen, there was no induction (<2-fold) of death (AnnexinV+ and/or 7AAD+) with a single agent. In the concurrent dose-schedule regimen, azacitidine and COMPOUND 1 as single agents increased the percentage of AnnexinV+ and/or 7AAD+ cells by 3.4-fold and 3.5-fold (average values across dose concentrations), respectively.

[5] = system: TF-1 R140Q cells; test: Real-time growth and apoptosis (Caspase 3/7 dye) on IncuCyte Zoom; format: cell-based; settings: for cell growth: COMPOUND 1 1-10 μM
Procedure: The TF-1 R140Q cells were pre-treated in bulk in flasks with 1 μM of QDx3 azacitidine and then plated with COMPOUND 1 concentrations of 10, 3 and 0.3 μM and Caspase 3/7 dye (obtained from Essen Biosciences) to monitor real-time growth and apoptosis on IncuCyte Zoom up to 104 hrs.
The TF-1 R140Q cells were plated with the combination of azacitidine (1 and 0.3 μM) and COMPOUND 1 (1 μM) and imaged for real-time growth and apoptosis on IncuCyte Zoom up to 104 hrs.
A real-time death analysis was performed using IncuCyte Zoom (FIGS. 5 and 6).

[6] = cited from earlier work
[7] = oral azacitidine; cited from earlier work
[8] = sequential experiment, azacitidine 1 μM

SMILES: CC(C)(O)CNc1nc(Nc2ccnc(C(F)(F)F)c2)nc(-c2cccc(C(F)(F)F)n2)n1 [COMPOUND 1, 2-methyl-1-[(4-[6-(trifluoromethyl)pyridin-2-yl]-6-{[2-(trifluoromethyl)pyridin-4-yl]amino}-1,3,5-triazin-2-yl)amino]propan-2-ol]
- hemoglobin production (coloration/hemoglobinization of cell pellets) ([1]; concurrent dosing regimen): increased hemoglobin production upon EPO differentiation in a dose-dependent manner
- time to observe increased red color of cells (haem production) post-EPO ([1]; sequential schedule): 7 days
- hemoglobin production (red color of cell pellets) ([1]; sequential schedule): increased hemoglobin production in a dose-dependent manner
- RNA expression of differentiation markers KLF1 and HBG [2]: Dose-dependent increases
- increase in HBG gene expression ([2]; concurrent, azacitidine 1 μM): 2.5 fold
- increase in HBG gene expression ([2]; sequential, azacitidine 0.3 μM): 241 fold
- CD34+/CD38+ and CD34+/CD38− cell populations [3]: reduced
- decrease of hematopoietic progenitor cells (CD34+/CD38+) [3]: 32%
- increase in percentage of AnnexinV+ and/or 7AAD+ cells [4]: 3.5 fold
- cell growth [5, 8]: no effect on cell growth
- caspase 3/7 death measure ([5]; summary, single agent, or concurrent combination): no effect

SMILES: Nc1ncn([C@@H]2O[C@H](CO)[C@@H](O)[C@H]2O)c(=O)n1 [azacitidine, 4-amino-1-O-D-ribofuranozyl-s-triazin-2(1H)-one]
- hemoglobin production (coloration/hemoglobinization of cell pellets) ([1]; concurrent dosing regimen): increased hemoglobin production
- cell death as evidenced by decreased cell pellet sizes ([1]; concurrent dosing regimen, azacitidine 1 μM): cell death occurred
- hemoglobin production (red color of cell pellets) ([1]; sequential schedule): little or no effect on cell pellet color
- RNA expression of differentiation markers KLF1 and HBG [2]: Dose-dependent increases
- increase in HBG gene expression ([2]; concurrent, azacitidine 1 μM): 7.1 fold
- increase in HBG gene expression ([2]; sequential, azacitidine 0.3 μM): 92 fold
- CD34+/CD38+ and CD34+/CD38− cell populations [3]: reduced
- decrease of hematopoietic progenitor cells (CD34+/CD38+) [3]: 7%
- increase in percentage of AnnexinV+ and/or 7AAD+ cells [4]: 3.4 fold
- cell growth [5, 8]: reduced growth
- apoptosis [5, 8]: increased apoptosis
- solubility ([6]; acetone, ethanol and methyl ketone): insoluble
- solubility ([6]; dimethylsulfoxide (DMSO)): soluble
- solubility ([6]; ethanol/water (50/50), propylene glycol and polyethylene glycol): slightly soluble
- solubility ([6]; water, water-saturated octanol, 5% dextrose in water, N-methyl-2-pyrrolidone, normal saline and 5% Tween 80 in water): sparingly soluble
- maximum tolerated dose [7]: 480 mg

SMILES: Nc1ncn([C@H]2C[C@H](O)[C@@H](CO)O2)c(=O)n1 [Decitabine, 4-amino-1-(2-deoxy-β-D-erythro-pentofuranosyl)-1,3,5-triazin-2(1H)one]
- solubility ([6]; dimethylsulfoxide (DMSO)): soluble
- solubility ([6]; ethanol/water (50/50), methanol/water (50/50) and methanol): slightly soluble
- solubility ([6]; water): sparingly soluble
